What follows are molecules tested against T1, human β-Secretase (Homo sapiens, UniProt P56817) (assay: TR-FRET assay (β-secretase enzyme, sBACE-Fc)). Conditions: soluble human β-secretase (sBACE-Fc), substrate (Europium)[…](Qsy7) 100 nM, pH4.5; read-out: IC50 in TR-FRET assay.
T1 construct: soluble part of the human β-Secretase (AA 1-AA 460); Fc domain of IgG1; made in house
Assay type: biochemical
Procedure: The β-secretase enzyme used in the TR-FRET is prepared as follows:
The cDNA for the soluble part of the human β-Secretase (AA 1-AA 460) was cloned using the ASP2-Fc10-1-IRES-GFP-neoK mammalian expression vector. The gene was fused to the Fc domain of IgG1 (affinity tag) and stably cloned into HEK 293 cells.
The robotic systems Biomek FX and Velocity 11 were used for all liquid handling and the enzyme and substrate solutions were kept on ice until they were placed in the robotic system. Enzyme (9 μl) was added to the plate then 1 μl of compound in dimethylsulphoxide was added, mixed and pre-incubated for 10 minutes. Substrate (10 μl) was then added, mixed and the reaction proceeded for 15 minutes at room temperature. The reaction was stopped with the addition of Stop solution (7 μl, NaAcetate, pH 9). […] The dimethylsulphoxide control, instead of test compound, defined the 100% activity level and 0% activity was defined by wells lacking enzyme (replaced with reaction buffer).

T1 sequence (P56817 22-460): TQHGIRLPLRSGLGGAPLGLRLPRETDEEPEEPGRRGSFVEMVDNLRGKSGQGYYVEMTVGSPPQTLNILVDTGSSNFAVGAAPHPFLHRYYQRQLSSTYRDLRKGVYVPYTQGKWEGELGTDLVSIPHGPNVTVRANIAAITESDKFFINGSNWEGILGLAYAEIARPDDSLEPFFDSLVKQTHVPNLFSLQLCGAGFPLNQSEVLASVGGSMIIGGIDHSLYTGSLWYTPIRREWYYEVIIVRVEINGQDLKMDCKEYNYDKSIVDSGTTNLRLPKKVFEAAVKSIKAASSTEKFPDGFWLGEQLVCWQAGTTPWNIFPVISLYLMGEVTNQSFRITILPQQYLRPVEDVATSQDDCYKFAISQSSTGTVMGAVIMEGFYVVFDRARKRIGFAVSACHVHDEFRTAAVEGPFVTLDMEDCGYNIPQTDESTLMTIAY

Row | IC50 | Structure (SMILES)
1 | 1100 nM | COc1cc(C2(c3cccc(-c4cc(C#N)ccn4)c3)N=C(N)c3c(F)cccc32)ccn1 (stereo not shown) [Example 39, 2-(3-(3-Amino-4-fluoro-1-(2-methoxypyridin-4-yl)-1H-isoindol-1-yl)phenyl)isonicotinonitrile]
2 | 310 nM | NC1=NC(c2ccnc(-c3cncnc3)c2)(c2ccnc(C(F)F)c2)c2cccc(F)c21 (stereo not shown) [Example 42, 1-(2-(Difluoromethyl)pyridin-4-yl)-4-fluoro-1-(2-(pyrimidin-5-yl)pyridin-4-yl)-1H-isoindol-3-amine]
3 | 560 nM | COc1ccc(C2(c3cccc(-c4cncnc4)c3)N=C(N)c3c(F)cccc32)cc1C#N (stereo not shown) [Example 43, 5-(3-Amino-4-fluoro-1-(3-(pyrimidin-5-yl)phenyl)-1H-isoindol-1-yl)-2-methoxybenzonitrile]
4 | 79 nM | COc1c(C)cc(C2(c3cccc(-c4cncnc4)c3)N=C(N)c3c(F)cccc32)nc1C (stereo not shown) [Example 44, 4-Fluoro-1-(5-methoxy-4,6-dimethylpyridin-2-yl)-1-(3-(pyrimidin-5-yl)phenyl)-1H-isoindol-3-amine]
5 | 270 nM | Cc1cc(C2(c3cccc(-c4cncnc4)c3)N=C(N)c3c(F)cccc32)nc(C)n1 (stereo not shown) [Example 45, 1-(2,6-Dimethylpyrimidin-4-yl)-4-fluoro-1-(3-(pyrimidin-5-yl)phenyl)-1H-isoindol-3-amine]
6 | 690 nM | COc1cc(C2(c3cccc(-c4cncnc4)c3)N=C(N)c3c(F)cccc32)cc(F)c1F (stereo not shown) [Example 46, 1-(3,4-Difluoro-5-methoxyphenyl)-4-fluoro-1-(3-(pyrimidin-5-yl)phenyl)-1H-isoindol-3-amine]
7 | 83 nM | COc1c(C)cc(C2(c3cccc(-c4cncnc4)c3)N=C(N)c3c(F)cccc32)cc1CC#N (stereo not shown) [Example 47, 2-(5-(3-Amino-4-fluoro-1-(3-(pyrimidin-5-yl)phenyl)-1H-isoindol-1-yl)-2-methoxy-3-methylphenyl) acetonitrile]
8 | 350 nM | COc1cc(C2(c3cccc(-c4cncnc4)c3)N=C(N)c3c(F)cccc32)ccc1F (stereo not shown) [Example 48, 4-Fluoro-1-(4-fluoro-3-methoxyphenyl)-1-(3-(pyrimidin-5-yl)phenyl)-1H-isoindol-3-amine]
9 | 600 nM | COc1ncc(C2(c3cccc(-c4cncnc4)c3)N=C(N)c3c(F)cccc32)cc1C(F)(F)F (stereo not shown) [Example 49, 4-Fluoro-1-(6-methoxy-5-(trifluoromethyl)pyridin-3-yl)-1-(3-(pyrimidin-5-yl)phenyl)-1 H-isoindol-3-amine]
10 | 420 nM | NC1=NC(c2ccnc(C(F)(F)F)c2)(c2ccc(O)c(-c3cnccn3)c2)c2cccc(F)c21 (stereo not shown) [Example 50, 4-(3-Amino-4-fluoro-1-(2-(trifluoromethyl)pyridin-4-yl)-1H-isoindol-1-yl)-2-(pyrazin-2-yl)phenol]
11 | 5600 nM | COc1ccc(C2(c3ccnc(C(F)(F)F)c3)N=C(N)c3c(F)cccc32)cc1-c1cncnc1 (stereo not shown) [Example 51, 4-Fluoro-1-(4-methoxy-3-(pyrimidin-5-yl)phenyl)-1-(2-(trifluoromethyl)pyridin-4-yl)-1H-isoindol-3-amine]
12 | 690 nM | NC1=NC(c2ccnc(-c3cncnc3)c2)(c2ccnc(C3CC3)c2)c2cccc(F)c21 (stereo not shown) [Example 52, 1-(2-Cyclopropylpyridin-4-yl)-4-fluoro-1-(2-(pyrimidin-5-yl)pyridin-4-yl)-1H-isoindol-3-amine]
13 | 910 nM | Cc1cc(C2(c3ccnc(-c4cncc(F)c4)c3)N=C(N)c3c(F)cccc32)nc(C)c1OC(F)F (stereo not shown) [Example 53, 3-(5-Difluoromethoxy-4,6-dimethyl-pyridin-2-yl)-7-fluoro-3-(5′-fluoro-[2,3′]bipyridinyl-4-yl)-3H-isoindol-1-ylamine]
14 | 42 nM | COc1c(C)cc(C2(c3cccc(-c4cncnc4)c3)N=C(N)c3c(F)cccc32)cc1C#N (stereo not shown) [Example 54, 5-(3-Amino-4-fluoro-1-(3-(pyrimidin-5-yl)phenyl)-1H-isoindol-1-yl)-2-methoxy-3-methylbenzonitrile]
15 | 150 nM | NC1=NC(c2cccc(-c3cncnc3)c2)(c2ccnc(C(F)(F)F)c2)c2cc(Cl)cc(F)c21 (stereo not shown) [Example 55, 6-Chloro-4-fluoro-1-(3-(pyrimidin-5-yl)phenyl)-1-(2-(trifluoromethyl)pyridin-4-yl)-1H-isoindol-3-amine]
16 | 230 nM | Cc1cc(C2(c3cccc(-c4cncnc4)c3)N=C(N)c3c(F)cc(Cl)cc32)ccn1 (stereo not shown) [Example 56, 6-Chloro-4-fluoro-1-(2-methylpyridin-4-yl)-1-(3-(pyrimidin-5-yl)phenyl)-1H-isoindol-3-amine]

— patent US8030500B2, “Substituted isoindoles for the treatment and/or prevention of Aβ- related pathologies” (AstraZeneca AB, priority 2008, dated 2011)
